The test system of one series is SD rats. As to conditions: 100 mg/kg by gavage every 8 h for 7 days, means ± SEM, n = 8.
The nature of a further series: in vitro. The following applies: human, Caco-2.

The Papp A→B is how fast a substance crosses the layer from the apical side.

On to `CC(=O)Nc1ccc(NC(=O)c2ccc([N+](=O)[O-])o2)cc1` [1H, N-(4-Acetamidophenyl)-5-nitrofuran-2-carboxamide], for which the “Serum Cl” value with SD rats is given as 101.7 ± 1.3 mmol/L.

In “in vitro”, `COCCc1ccc(OCC(O)CNC(C)C)cc1` (centres unmarked) [metoprolol] showed a Papp A→B at 120 min, 2 μmol/L of 13.1 ± 0.65 ×10⁻⁶ cm/s.

The values above are taken from PMC7838058 (Acta Pharmaceutica Sinica. B, 2020).
